Measured values: article PMC9259591, “Irigenin, a novel lead from Iris confusa for management of Helicobacter pylori infection with selective COX-2 and HpIMPDH inhibitory potential” (Scientific Reports, 2022)
In brackets after ≈: the same amount, converted by molar mass. Several values for one entry are separate records, joined by “and”; a condition that tells them apart may be missing. Identical values can stand only once. Like-named read-outs stand apart in the source and are kept apart here.

Tests used:
H. pylori ATCC 700392 = assay: anti-Helicobacter pylori activity, microwell dilution method with MTT; type: cell-based
Experimental: The anti-Helicobacter pylori activity of the PF and NPF as well as the isolated compounds was evaluated against H. pylori ATCC 700392 (type strain, obtained from the American Type Culture Collection unit (ATCC), using microwell dilution method and clarithromycin as standard drug[37]. The detailed procedures were described in the supplementary file.
The anti-Helicobacter pylori activity of the PF and NPF as well as the isolated compounds was evaluated against H. pylori ATCC 700392 (a type strain, obtained from the American Type Culture Collection unit (ATCC), using microwell dilution method and clarithromycin as standard drug ^1. The tested samples were prepared in dimethyl sulfoxide and successive ten twofold dilutions (125- 0.24 µg/mL) were carried out in a 96-well plate. Each microplate well included forty μL of Brain Heart Infusion growth medium and 10% fetal bovine serum (FBS), ten μL of inoculum and fifty μL of the tested sample. The plates were incubated for 3 days, in 5% oxygen, 10% carbon dioxide, 85 % nitrogen atmosphere at 37°C. Forty μL of 3- (4, 5-dimethyl-thiazol-2-yl)- 2,5-diphenyl-tetrazolium bromide (MTT) at a final concentration of 0.5 mg/mL freshly prepared in H2O was added to each well and incubated for 30 min. The bacteria were biologically active when change to purple color was observed ^1. While no change in MTT color indicated inhibition. Solvent control (DMSO) and the standard antibiotic (clarithromycin) were used as negative and positive controls, respectively. The H. pylori inhibition % was calculated using the given formula:
% Inhibition = Abs control – Abs sample × 100 /Abs control.

ovine COX-1 = molecular target: T1, ovine COX-1 (Ovis aries, UniProt P05979); assay: COX-1 inhibitory activity, colourimetric COX inhibitor screening assay kit; type: biochemical; conditions: ovine COX-1
T1 construct: purchased
T1 sequence (P05979 25-600): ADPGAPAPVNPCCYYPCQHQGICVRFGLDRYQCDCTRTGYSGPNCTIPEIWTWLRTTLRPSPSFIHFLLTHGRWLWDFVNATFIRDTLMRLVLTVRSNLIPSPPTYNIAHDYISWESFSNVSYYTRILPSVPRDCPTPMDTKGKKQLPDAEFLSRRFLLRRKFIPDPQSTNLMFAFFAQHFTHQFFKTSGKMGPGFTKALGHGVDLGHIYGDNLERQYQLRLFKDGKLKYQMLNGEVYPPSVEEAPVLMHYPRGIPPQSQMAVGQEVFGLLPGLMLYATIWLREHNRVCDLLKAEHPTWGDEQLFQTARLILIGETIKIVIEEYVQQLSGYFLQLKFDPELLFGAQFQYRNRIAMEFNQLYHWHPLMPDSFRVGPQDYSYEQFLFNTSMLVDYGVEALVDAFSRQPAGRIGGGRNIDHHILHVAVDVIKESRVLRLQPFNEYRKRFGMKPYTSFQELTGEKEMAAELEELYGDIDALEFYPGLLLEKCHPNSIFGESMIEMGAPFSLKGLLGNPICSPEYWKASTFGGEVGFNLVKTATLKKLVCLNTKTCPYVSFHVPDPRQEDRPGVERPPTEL
Experimental: (§1) The inhibitory COX activity was assayed colourimetrically by examining the inhibition of the ovine COX-1 and human recombinant COX-2 enzymes as described by George et al.[38], using a COX inhibitor screening assay kit. The detailed procedures were described in the supplementary file.
(§2) The inhibitory COX activity was assayed colourimetrically by examining the inhibition of the ovine COX-1 and human recombinant COX-2 enzymes as described by George et al. ^2, using a COX inhibitory screening assay kit. This assay determines the COX peroxidase activity by monitoring the appearance of N,N,N',N'-tetramethyl-p-phenylenediamine (TMPD). Assay buffer (150 μL 0.1 M Tris–HCl pH 8.0), 10 μL heme and 10μL enzyme (COX-1 or COX-2) were added in each well. Ten μL of each tested sample concentration was added to each well and incubated for 15 minutes at 37°C. After incubation, 20 μL of TMPD was added to each well. For initiating the reaction, 10 μL 10 mM arachidonic acid was added and the plates were further incubated for another 2 minutes at 37°C. For terminating the reaction, 50 μL 1 N HCl and saturated stannous chloride were added.
(§3) Reaction mixture containing assay buffer and heme acted as the blank and a mixture with either COX-1 or COX-2 assay buffer and heme acted as the 100% initial activity (IA). […] The absorbances of oxidized TMPD (blue colour) were read in ELISA plate reader at 590 nm. The % inhibition was calculated using the following formula:
(§4) COX % Inhibition= [(100%IA−Inhibitor)/ 100% IA x 100]. Where, IA: 100% initial activity.
(§5) The concentration at which the tested sample produces 50% inhibition of COX-1 and/or COX-2 (IC50) was determined. The selectivity index (SI) was calculated also as IC50 (COX-1)/ (COX-2).

human recombinant COX-2 = molecular target: T2, human recombinant COX-2 (Homo sapiens, UniProt P35354); assay: COX-2 inhibitory activity, colourimetric COX inhibitor screening assay kit; type: biochemical; conditions: for SI (COX-1/COX-2): selectivity index calculated as IC50 (COX-1)/(COX-2)
T2 construct: purchased
T2 sequence (P35354 18-604): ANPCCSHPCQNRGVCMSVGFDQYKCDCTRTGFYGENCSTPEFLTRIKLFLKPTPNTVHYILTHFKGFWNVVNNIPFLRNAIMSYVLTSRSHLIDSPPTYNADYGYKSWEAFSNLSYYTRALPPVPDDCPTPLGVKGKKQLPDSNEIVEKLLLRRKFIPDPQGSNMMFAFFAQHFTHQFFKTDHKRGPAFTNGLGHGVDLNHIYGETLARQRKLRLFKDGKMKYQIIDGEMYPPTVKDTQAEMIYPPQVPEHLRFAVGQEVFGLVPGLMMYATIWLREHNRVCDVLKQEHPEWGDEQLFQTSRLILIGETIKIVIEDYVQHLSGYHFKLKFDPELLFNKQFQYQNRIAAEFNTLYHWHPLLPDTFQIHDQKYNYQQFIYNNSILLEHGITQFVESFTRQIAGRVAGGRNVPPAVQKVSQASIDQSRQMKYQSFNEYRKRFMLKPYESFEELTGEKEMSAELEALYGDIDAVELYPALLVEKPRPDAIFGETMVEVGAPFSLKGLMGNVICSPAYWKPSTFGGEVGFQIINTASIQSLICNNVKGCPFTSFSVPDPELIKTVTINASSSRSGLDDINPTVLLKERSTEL
Experimental: as §1, §2, §3, §4, §5

[1] = tested on: RAW 264.7 macrophage cell line (NO); assay: nitric oxide (NO) inhibitory activity in lipopolysaccharide-stimulated macrophages; type: cell-based, murine; conditions: Mus musculus, RAW264.7; RAW 264.7 cells, 1 µg/mL lipopolysaccharide
Experimental: The detailed procedures were described in the supplementary file.
The cell was incubated at 37 °C in 5% carbon dioxide. RAW 264.7 cells were seeded onto a 96-well plate (1×10^5 cells/well) and incubated for 24 h. […] Followed by incubation, the cells stimulated with 1µg/mL of lipopolysaccharide for another 24 h. The supernatant was gently transferred to new 96-well plates and used for NO determination. L-N 6 - (1-iminoethyl) lysine hydrochloride), is used as standard drug. The absorbance (Abs) was measured in a microplate reader at 540 nm ^3. The percentage inhibition was calculated using the following formula:
Inhibition (%) = 1-[Control-Test] Control × 100.

[2] = molecular target: T3, H. pylori inosine-5′-monophosphate dehydrogenase (HpIMPDH) (Helicobacter pylori, UniProt P56088); assay: In vitro HpIMPDH inhibition assay (NADH fluorescence); type: biochemical; parameters: HpIMPDH inhibitory activity: unit not given here
T3 sequence (P56088 1-481): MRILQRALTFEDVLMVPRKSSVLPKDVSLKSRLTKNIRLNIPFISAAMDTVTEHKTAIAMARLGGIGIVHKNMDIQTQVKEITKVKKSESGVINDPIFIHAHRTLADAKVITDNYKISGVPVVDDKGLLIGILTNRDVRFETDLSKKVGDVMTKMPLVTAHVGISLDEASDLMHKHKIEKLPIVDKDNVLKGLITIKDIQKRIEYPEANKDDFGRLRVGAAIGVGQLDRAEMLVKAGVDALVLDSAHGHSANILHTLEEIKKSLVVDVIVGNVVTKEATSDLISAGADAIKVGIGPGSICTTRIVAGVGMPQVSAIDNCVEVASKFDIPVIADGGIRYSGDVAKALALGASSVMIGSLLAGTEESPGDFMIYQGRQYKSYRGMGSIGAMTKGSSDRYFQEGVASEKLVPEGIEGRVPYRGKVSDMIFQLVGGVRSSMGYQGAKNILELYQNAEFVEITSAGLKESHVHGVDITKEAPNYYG
Experimental: The assay was carried out according to Galal[40] and was described in detail in the supplementary file.
(§6) Thus, irigenin was selected to test its HpIMPDH inhibitory activity by monitoring NADH production at concentration range of 10–0.078 µM compared to clarithromycin as standard drug. Also, to examine irigenin selectivity toward the bacterial IMPDH, human hIMPDH2 inhibition potential was assayed.
The assay was carried out in a final volume of two hundred μL in black 96-well plate (Tarsons Products Pvt. Ltd., Kolkata, India) with a reaction buffer composed of one hundred mM KCl, fifty mM Tris–HCl (pH 8.6), and one mM dithiothreitol (DTT). One hundred nM H. pylori inosine-5′-monophosphate dehydrogenase (HpIMPDH) in the presence/absence of the tested compound were used. The assay mixture was then incubated at 37 °C for 10 min, and the reaction was initiated by the adding 250 μM of inosine 5ʹ‐monophosphate (IMP) and 300 μM of nicotinamide adenine dinucleotide (NAD^+) substrate buffer. The assay was allowed to proceed for 45 min at 37 °C.
The formed NADH was measured by recording the fluorescence (excitation 340 nm, emission 440 nm) using PerkinElmer EnVision Multilabel Reader (Waltham, MA) at an interval of one min. DMSO and clarithromycin were used as vehicle control and positive control, respectively. The concentration of the tested sample leading to 50% HpIMPDH inhibition (IC50) was estimated.

[3] = molecular target: T4, Human inosine-5′-monophosphate dehydrogenase (hIMPDH2) (Homo sapiens, UniProt P12268); assay: In vitro hIMPDH2 inhibition assay (NADH absorbance at 340 nm); type: biochemical; parameters: key to hIMPDH2 inhibitory activity: % hIMPDH2 inhibition; conditions: for hIMPDH2 inhibitory activity: in % (unit assumed)
T4 construct: purchased NovoCIB SAS (Lyon, France)
Experimental: Human inosine-5′-monophosphate dehydrogenase (hIMPDH2) was purchased from NovoCIB SAS (Lyon, France). […] The detailed procedures were described in the supplementary file.
as §6
Human inosine-5′-monophosphate dehydrogenase (hIMPDH2) was purchased from NovoCIB SAS (Lyon, France). […] The assay was carried out in 96-well plates (Tarsons, 980040). The reaction buffer consisted of hundred mM KCl, hundred mM Tris–HCl (pH 8.6), and five mM DTT, 4% v/v DMSO with or without the tested compound and 0.15 mU of purified hIMPDH2 enzyme per well (from 1.5 mg/mL stock concentration). The enzyme stock solution final volume was 2 μL per well, which was insignificant to cause final assay buffer composition change. Addition of (substrate buffer) 0.2 mM of IMP and 0.2 mM of NAD^+ initiated the assay, then it was allowed to proceed for 30 min at 37 °C. The formed NADH was measured by reading the absorbance at 340 nm. […] The concentration of the tested sample leading to 50% hIMPDH2 inhibition (IC50) was estimated.

[4] = concentration required for 100% inhibition; H. pylori ATCC 700392; ND = not detected
[5] = Helicobacter pylori, ATCC700392; read-out: MIC (H. pylori)
[6] = sample conc. 0.078 (range 10–0.078 µM)
[7] = sample conc. 0.156 (range 10–0.078 µM)
[8] = sample conc. 0.313 (range 10–0.078 µM)
[9] = sample conc. 0.625 (range 10–0.078 µM)
[10] = sample conc. 1.25 (range 10–0.078 µM)
[11] = sample conc. 2.5 (range 10–0.078 µM)
[12] = sample conc. 5 (range 10–0.078 µM)
[13] = sample conc. 10 (range 10–0.078 µM)

CC(C)[C@H]1CC[C@H]2[C@@]1(C)CC[C@@]1(C)[C@@H]3CC[C@H]4C(C)(C)[C@@H](O)CC[C@]4(C)C3=CC[C@]21C [Isoarborinol (N1), isoarborinol]
MIC (H. pylori) (H. pylori ATCC 700392; [4]): no H. pylori inhibitory potential
IC50 (ovine COX-1; read-out: IC50 (COX-1)): 73.3 ± 1 µM
IC50 (human recombinant COX-2; human recombinant COX-2): 51.8 ± 2.1 µM
SI (COX-1/COX-2) (human recombinant COX-2): 1.42
IC50 [1]: 44.3 ± 1.7 µM

CC[C@H](/C=C/[C@@H](C)[C@H]1CC[C@H]2[C@@H]3CC=C4C[C@@H](O)CC[C@]4(C)[C@H]3CC[C@]12C)C(C)C [Stigmasterol (N2), stigmasterol]
MIC (H. pylori) (H. pylori ATCC 700392; [4]): no H. pylori inhibitory potential
SI (COX-1/COX-2) (human recombinant COX-2): 1.33

CC[C@H]1OC(=O)[C@H](C)[C@@H](O[C@H]2C[C@@](C)(OC)[C@@H](O)[C@H](C)O2)[C@H](C)[C@@H](O[C@@H]2O[C@H](C)C[C@H](N(C)C)[C@H]2O)[C@](C)(OC)C[C@@H](C)C(=O)[C@H](C)[C@@H](O)[C@]1(C)O [Clarithromycin, clarithromycin, reference compound]
MIC (H. pylori ATCC 700392; [5]): 1.95 µg/mL and 2.61 µM
IC50 [2]: 0.51 ± 0.58 µM
HpIMPDH inhibitory activity [2, 6]: 9.14 ± 1.70
HpIMPDH inhibitory activity [2, 7]: 21.82 ± 2.10
HpIMPDH inhibitory activity [2, 8]: 38.25 ± 1.50
HpIMPDH inhibitory activity [2, 9]: 56.06 ± 0.58
HpIMPDH inhibitory activity [2, 10]: 69.31 ± 2.10
HpIMPDH inhibitory activity [2, 11]: 81.22 ± 1.60
HpIMPDH inhibitory activity [2, 12]: 100 ± 0.00
HpIMPDH inhibitory activity [2, 13]: 100 ± 0.00
IC50 [3]: 3.1 ± 2.1 µM
hIMPDH2 inhibitory activity [3, 6]: 0.00
hIMPDH2 inhibitory activity [3, 7]: 0.00
hIMPDH2 inhibitory activity [3, 8]: 9.74 ± 0.67
hIMPDH2 inhibitory activity [3, 9]: 19.35 ± 1.50
hIMPDH2 inhibitory activity [3, 10]: 27.32 ± 1.70
hIMPDH2 inhibitory activity [3, 11]: 46.32 ± 2.20
hIMPDH2 inhibitory activity [3, 12]: 60.24 ± 1.50
hIMPDH2 inhibitory activity [3, 13]: 76.32 ± 0.50

COc1c(O[C@@H]2O[C@H](CO)[C@@H](O)[C@H](O)[C@H]2O)cc2occ(-c3ccc(O)cc3)c(=O)c2c1O [Tectoridin (P1), tectorigenin-7-O-β-D-glucoside]
MIC (H. pylori ATCC 700392; [5]): > 125 µg/mL and > 270 µM
MIC (H. pylori) (H. pylori ATCC 700392; [4]): > 125 µg/mL
MIC (H. pylori) (H. pylori ATCC 700392; concentration required for 100% inhibition; H. pylori ATCC 700392; ND = not detected; listed as tectoridine (P1)): no activity
IC50 (COX-1) (ovine COX-1; ND = not detected): no inhibition
IC50 (COX-2) (human recombinant COX-2; human recombinant COX-2, ND = not detected): no inhibition

O=c1cc(-c2ccc(O)c(O)c2)oc2c([C@@H]3O[C@H](CO)[C@@H](O)[C@H](O)[C@H]3O)c(O)cc(O)c12 [Orientin (P2), luteolin-8-C-β-glucopyranoside]
MIC (H. pylori ATCC 700392; Helicobacter pylori, ATCC700392, read-out: MIC (H. pylori)): 15.5 µg/mL and 34.6 µM
MIC (H. pylori) (H. pylori ATCC 700392; [4]): 15.53 µg/mL (≈ 34.6 µM)
MIC (H. pylori ATCC 700392; concentration required for 100% inhibition; H. pylori ATCC 700392; read-out: MIC (H. pylori)): 34.64 µM (≈ 15.5 µg/mL)
SI (COX-1/COX-2) (human recombinant COX-2): 1.58
